# According to US9682960B2 (priority 2013, dated 2017):
# Values joined by “and” are separate entries in the source; they are usually repeats but may differ in a detail not shown here. Equal values may be shown once. Read-outs that look alike come from different tables or passages of the source.
# Tests used:
# Human Androgen Receptor = Human Androgen Receptor (Homo sapiens (Human), UniProt P10275); assay: Androgen receptor assay: [3H]R1881 displacement, cytosol of HEK-293 cells transfected with hAR (hydroxylapatite assay); type: binding; conditions: for Human Androgen Receptor Binding RBA (%) R1881 = 100: relative binding affinity
# Rat Androgen Receptor = Rat Androgen Receptor (Rattus norvegicus (Rat), UniProt P15207); assay: Androgen receptor assay: [3H]R1881 displacement, rat prostate cytosol; type: binding
# Experimental: On the morning of the binding assay, ventral prostates collected from 24 h-gonadectomized rats were homogenized in buffer A (1 g of tissue in 5 mL) and the homogenate was centrifuged as described above.
# Androgen binding is measured using the hydroxylapatite (HAP) assay. In brief, the radioactive steroid [^3H]R1881 solubilized in ethanol is diluted with buffer B (10 mM Tris-HCl, 1.5 mM EDTA disodium salt, 10 mM α-monothioglycerol, pH 7.4). Aliquots of the cell or prostate cytosol preparation (0.1 ml) are then incubated with 5 nM [^3H]R1881 (0.1 ml, ˜100 000 cpm) in the presence or absence of the indicated concentrations of unlabeled compounds (0.1 ml, prepared in buffer B containing 30% ethanol) for 16-18 h at 0-4° C. Triamcinolone acetonide (TAC; 100 nM) is added to mask progesterone receptors. Unbound steroids are separated by incubation for 40 min at 0-4° C. with 0.3 ml HAP prepared in buffer P (50 mM Tris-HCl, 10 mM KH2PO4, pH 7.4). After incubation with HAP and 10 min of centrifugation at 1000×g, the pellet is washed 3 times with 1 ml of buffer P. Thereafter, the radioactivity is extracted from the pellet by incubation at room temperature for 60 min with 1 ml of ethanol. After centrifugation, the supernatant is decanted into a scintillation vial and the pellet is extracted again with ethanol. After the addition of scintillation liquid, the radioactivity is measured in a liquid scintillation counter.
# Relative binding affinity (RBA) was calculated by the following formula: RBA (%) [IC50(R1881)/IC50 (compound)]×100 B—In Vitro Assay of Androgenic/Antiandrogenic Activity
# [1] = system: Shionogi mouse mammary carcinoma cells; assay: In vitro androgenic/antiandrogenic activity: proliferation of Shionogi cells with or without DHT; type: cell-based; conditions: for IC50: Mus musculus, read-out: Shionogi Antiandrogenic Activity IC50, DHT (0.3 nM)-stimulated cell number
# [2] = system: PSA levels in human prostatic carcinoma LNCaP cells; assay: Prostate specific antigen (PSA) in LNCaP cells with or without R1881; type: cell-based
# Experimental: LNCaP cells were cultured as previously described (Qi et al. 2001). In brief, the LNCaP cells were cultured for 6 days in 1.0 ml RPMI 1640 supplemented with hormone-depleted 0.25% FCS before each experiment. At the start of the experiment, half of the medium (0.5 ml) was replaced with 0.5 ml of identical medium containing the appropriate concentrations of tested compounds, in the presence or absence of 1.0 nM of R1881. After 72 h of incubation of LNCaP cells with compounds, 0.5 ml of culture medium was removed for PSA determination. PSA levels were measured using the PSA [^125I] IRMA KIT (REF: RK-10CT) from Izotop (Institute of Isotopes Ltd, Budapest, Hungary).
# [3] = Oral absorption, Experiment 2: plasma, intraprostatic and intramuscular concentrations after 0.5 mg EM-9150/animal in castrated male rats; type: in vivo; conditions: Sprague-Dawley, rat, po, 0.5 mg/animal
# Experimental: Castrated male Sprague-Dawley rats (Crl:CD(SD)Br) weighing 275-375 g were used for pharmacokinetic studies. Animals were fasted (access to water only) from around 16 h00 the afternoon prior to the dosing day.
# Blood samples (˜0.5 mL/timepoint) were collected by jugular venipuncture on animals under isoflurane anesthesia at 1, 2, 3, 4, 7 and 24 h post-dosing. Blood samples were put into tubes containing EDTA(K3) as anticoagulant and centrifuged at 4° C. for 10 min at 1700-2400 g. The resulting plasma was frozen on dry ice and kept at −80° C. pending analysis. […] Prostates and bulbocavernosus muscles were frozen in liquid nitrogen and kept at −80° C. until being used. A buffer and an ethanol-acetone solution were added to the tissue and homogenized with a Polytron. The supernatant was collected, evaporated to dryness and reconstituted in buffer.
# Intraprostatic and intramuscular concentrations of the compounds were also determined by LC-MS/MS.
# [4] = system: castrated (CX) immature male rats; assay: Systemic androgenic (agonistic) activity in orchidectomized (CX) immature male rats; type: in vivo, rat; conditions: for CX Agonistic activity % Stimulation Bulbo / CX Agonistic activity % Stimulation SV / CX Agonistic activity % Stimulation Prostate: 0.1 mg/rat/po, 7 days; for CX Agonistic activity % Stimulation Bulbo: bulbocavernosus muscles weight; for CX Agonistic activity % Stimulation SV: seminal vesicles weight; for CX Agonistic activity % Stimulation Prostate: ventral prostate weight
# Androgen Receptor = assay: Overall classification (antiandrogen / SARM) in the models studied
# [5] = system: intact immature male rats; assay: Activity in intact immature male rats; type: in vivo, rat
# Experimental: Immature male rats (Crl:CD(SD)Br) 22 to 24-day old weighting 60-80 g at start of treatment were obtained from Charles-River, Inc. (St-Constant, Quebec, Canada) and housed up to 5 per cage in plastic bins in a temperature (23±1° C.)- and light (12 h light/day, lights on at 7 h15)-controlled environment. The rats were fed rodent chow and tap water ad libitum. […] The day following their arrival, the designed animals were orchidectomized (CX) under Isoflurane anesthesia (Study Day 1) via the scrotal route and were then randomly assigned to groups of 3 to 5 animals. At the time of orchidectomy, one silastic implant of dihydrotestosterone (DHT; 1 cm length of pure DHT in silastic tubing having inner and outer diameter of 0.078 and 0.125 inches, respectively), was inserted subcutaneously in the dorsal area of animals assigned to the evaluation of antiandrogenic activity. In the case of intact animal experiments, the orchidectomy and the silastic implant installation are omitted.
# Tested compounds were administered orally once daily for 7 days from Study Day 2 to Study Day 8 at doses generally ranging from 0.1 and 0.5 mg/animal. Compounds were either solubilized in dimethylsulfoxide (DMSO, 10% final concentration) and were administered as a solution/suspension in 0.9% NaCl-1% gelatin or were administered as suspensions in 0.4% aqueous methylcellulose. Animals of the control groups received the corresponding vehicle alone during the 7-day period. Some animals were treated with the antiandrogen Flutamide or Casodex as reference. The animals under isoflurane anesthesia were killed by cervical dislocation on day 9 of the study, approximately 24 h after the last dosing. The ventral prostate, seminal vesicles and bulbocavernosus muscles were rapidly dissected and weighed.
# For calculations with intact animals, control DHT is replaced by control intact and the % stimulation is subtracted by 100%. W is the weight of the prostate, seminal vesicles or bulbocavernosus muscles. Discussion
# [6] = system: castrated (CX) immature male rats; assay: Systemic androgenic (agonistic) activity in orchidectomized (CX) immature male rats; type: in vivo; conditions: 0.1 mg/rat, s.c. (subcutaneous)
# [7] = immature castrated rat, oral 7 days
# Chain of Rat Androgen Receptor (P15207 whole entry, looked up): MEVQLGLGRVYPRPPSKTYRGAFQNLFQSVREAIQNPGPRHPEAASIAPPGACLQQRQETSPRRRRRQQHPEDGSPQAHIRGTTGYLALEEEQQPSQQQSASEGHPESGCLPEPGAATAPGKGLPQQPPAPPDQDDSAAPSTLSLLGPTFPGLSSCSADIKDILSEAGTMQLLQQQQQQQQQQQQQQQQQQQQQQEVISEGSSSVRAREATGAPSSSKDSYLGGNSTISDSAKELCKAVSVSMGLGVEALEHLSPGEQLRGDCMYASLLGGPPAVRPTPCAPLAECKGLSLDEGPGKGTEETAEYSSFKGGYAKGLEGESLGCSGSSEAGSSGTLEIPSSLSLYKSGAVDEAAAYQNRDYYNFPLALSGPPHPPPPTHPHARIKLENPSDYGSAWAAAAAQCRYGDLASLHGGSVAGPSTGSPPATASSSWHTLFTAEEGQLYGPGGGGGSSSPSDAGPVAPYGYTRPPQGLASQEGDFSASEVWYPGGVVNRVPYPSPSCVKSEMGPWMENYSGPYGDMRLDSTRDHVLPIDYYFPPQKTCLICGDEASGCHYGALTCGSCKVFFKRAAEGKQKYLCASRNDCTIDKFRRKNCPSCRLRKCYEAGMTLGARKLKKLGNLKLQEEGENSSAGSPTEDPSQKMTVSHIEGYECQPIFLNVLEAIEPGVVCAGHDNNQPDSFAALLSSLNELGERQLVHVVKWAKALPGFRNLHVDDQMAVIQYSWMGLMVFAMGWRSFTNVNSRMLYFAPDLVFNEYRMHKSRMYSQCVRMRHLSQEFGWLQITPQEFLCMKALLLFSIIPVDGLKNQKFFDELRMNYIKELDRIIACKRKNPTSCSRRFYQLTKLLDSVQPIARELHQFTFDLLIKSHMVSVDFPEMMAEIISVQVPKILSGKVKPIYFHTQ
# Chain of Human Androgen Receptor (P10275 whole entry): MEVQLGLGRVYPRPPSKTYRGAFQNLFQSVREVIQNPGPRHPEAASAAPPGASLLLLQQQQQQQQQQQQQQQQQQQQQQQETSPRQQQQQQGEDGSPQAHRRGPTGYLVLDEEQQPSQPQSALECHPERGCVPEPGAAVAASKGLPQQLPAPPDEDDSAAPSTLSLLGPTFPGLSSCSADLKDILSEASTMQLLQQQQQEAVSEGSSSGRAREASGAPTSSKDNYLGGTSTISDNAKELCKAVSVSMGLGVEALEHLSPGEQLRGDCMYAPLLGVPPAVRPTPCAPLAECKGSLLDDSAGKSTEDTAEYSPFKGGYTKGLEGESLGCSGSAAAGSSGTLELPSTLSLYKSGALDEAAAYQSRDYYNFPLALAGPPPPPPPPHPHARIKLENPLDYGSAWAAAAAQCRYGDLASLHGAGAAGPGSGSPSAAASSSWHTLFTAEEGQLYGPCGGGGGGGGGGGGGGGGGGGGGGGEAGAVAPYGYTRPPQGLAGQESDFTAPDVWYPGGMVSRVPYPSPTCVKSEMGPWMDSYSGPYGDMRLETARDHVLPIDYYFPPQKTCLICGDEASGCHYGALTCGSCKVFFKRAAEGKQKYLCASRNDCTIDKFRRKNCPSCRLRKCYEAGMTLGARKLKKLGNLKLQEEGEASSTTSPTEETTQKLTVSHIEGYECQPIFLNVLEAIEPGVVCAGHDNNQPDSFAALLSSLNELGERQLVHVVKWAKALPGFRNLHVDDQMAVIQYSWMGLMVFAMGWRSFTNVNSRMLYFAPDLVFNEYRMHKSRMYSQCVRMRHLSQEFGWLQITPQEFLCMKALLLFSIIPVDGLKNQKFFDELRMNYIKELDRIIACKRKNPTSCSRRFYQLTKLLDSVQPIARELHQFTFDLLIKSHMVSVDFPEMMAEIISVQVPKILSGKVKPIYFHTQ
smiles,measurement,setting,value
CC1(C)C(=O)N(c2ccc(C#N)c(Cl)c2)C(=O)N1CCCOc1ccc(-c2cc[n+]([O-])cc2)cc1Cl [EM-9156],times more potent than bicalutamide to displace R1881 from the human AR,Human Androgen Receptor; versus bicalutamide,57 times
same,Rat Androgen Receptor Binding RBA (%) R1881 = 100,Rat Androgen Receptor,5.3%
same,times more potent than OH-flutamide in the rat AR assay,Rat Androgen Receptor; versus OH-flutamide,53 times
same,times more potent than bicalutamide in the rat AR assay,Rat Androgen Receptor; versus bicalutamide,27 times
same,stimulation at 10^−7M on basal Shionogi cell proliferation (in words),"[1]; basal (no DHT), 10^−7M",absence of stimulation
same,inhibition at 0.1 µM,"[2]; Homo sapiens, LNCaP, read-out: LNCaP Cells Antiandrogenic activity (PSA) % inhibition at 10^−7M, R1881-stimulated, 10^−7M of compound",~50%
same,times more potent than bicalutamide in blocking R1881-stimulated PSA secretion,"[2]; LNCaP, versus bicalutamide",9.2 times and 10 times
same,stimulation at 10^−7M of basal PSA levels in LNCaP cells (in words),"[2]; basal (no R1881), 10^−7M",absence of stimulation
same,concentration at 7 h,"[3]; bulbocavernosus muscles, read-out: intramuscular concentration",12.7 ng/g
same,concentration at 7 h,"[3]; plasma, read-out: plasma concentration",22.3 ng/mL
same,concentration at 7 h,"[3]; ventral prostate, read-out: intraprostatic concentration",19.3 ng/g
same,CX Agonistic activity % Stimulation Bulbo,[4],5%
same,CX Agonistic activity % Stimulation SV,[4],0%
same,CX Agonistic activity % Stimulation Prostate,[4],1%
same,agonistic activity on ventral prostate weight (in words),"[4]; daily oral dosing for 7 days, immature castrated rat",no agonistic activity
same,classification as antiandrogen or SARM (in words),Androgen Receptor,antiandrogens
Cc1c(N2C(=O)N(CCCOc3ccc(-c4ccncc4)cc3Cl)C(C)(C)C2=O)ccc(C#N)c1Cl [EM-9251],Human Androgen Receptor Binding RBA (%) R1881 = 100,Human Androgen Receptor,253%
same,times more potent than OH-flutamide on the human AR (RBA ratio),Human Androgen Receptor; versus hydroxyflutamide,1200 times
same,IC50,[1],67.7 nM
same,% of stimulation at 10^−7M on basal Shionogi cells,"[1]; basal (no DHT), 10^−7M",38%
same,CX Agonistic activity % Stimulation Bulbo,[4],119±24% and 119 ± 24 (n = 2) %
same,CX Agonistic activity % Stimulation SV,[4],27 ± 1 (n = 2) %
same,CX Agonistic activity % Stimulation Prostate,[4],41 ± 2 (n = 2) %
same,activity on the bulbocavernosus muscles (in words),[4]; [7],agonistic activity
same,activity on the prostate and seminal vesicles (in words),[4]; [7],mixed agonistic-antagonistic activity
same,activity on the bulbocavernosus muscles (in words),[5]; immature intact rat,agonistic activity
same,activity on the prostate and seminal vesicles (in words),[5]; immature intact rat,antagonistic activity
same,inhibition of intact rat prostate,"[5]; intact immature rat, 7 days",25±4%
same,inhibition of intact rat seminal vesicles,"[5]; intact immature rat, 7 days",35±7%
same,stimulation of the bulbocavernosus muscles in intact rat,"[5]; intact immature rat, 7 days",77±6%
same,classification as antiandrogen or SARM (in words),Androgen Receptor,selective androgen receptor modulators
Cc1c(N2C(=O)N(CCCOc3ccc(-c4cc[n+]([O-])cc4)cc3Cl)C(C)(C)C2=O)ccc(C#N)c1Cl [EM-9252],Human Androgen Receptor Binding RBA (%) R1881 = 100,Human Androgen Receptor,96.3%
same,IC50,[1],> 100 nM
same,CX Agonistic activity % Stimulation Bulbo,[4],105 ± 9 (n = 2) %
same,CX Agonistic activity % Stimulation SV,[4],29 ± 5 (n = 2) %
same,CX Agonistic activity % Stimulation Prostate,[4],46 ± 5 (n = 2) %
same,classification as antiandrogen or SARM (in words),Androgen Receptor,selective androgen receptor modulators
Cc1c(N2C(=O)NC(C)(C)C2=O)ccc(C#N)c1Cl [EM-9289],Human Androgen Receptor Binding RBA (%) R1881 = 100,Human Androgen Receptor,1.0%
same,IC50,[1],~1000 nM
same,CX Agonistic activity % Stimulation Bulbo,[4],138 ± 15 (n = 2) %
same,CX Agonistic activity % Stimulation SV,[4],38 ± 5 (n = 2) %
same,CX Agonistic activity % Stimulation Prostate,[4],50 ± 6 (n = 2) %
same,classification as antiandrogen or SARM (in words),Androgen Receptor,selective androgen receptor modulators
C[C@]12CC[C@H]3[C@@H](CCC4=CC(=O)CC[C@@]43C)[C@@H]1CC[C@@H]2O [Testosterone],CX Agonistic activity % Stimulation Bulbo,[6],171%
same,CX Agonistic activity % Stimulation Prostate,[6],99%
